This note sets out measurements from BindingDB's records for doi:10.1021/acs.jmedchem.1c00818 (University of Picardy Jules Verne, 2021).

Test [1] can be described thus: Inhibition of DC-SIGN extracellular domain (unknown origin) binding to HIV gp120 by surface plasmon resonance analysis. (Surface plasmon resonance follows binding to a sensor surface in real time, without labels.)
A short description of test [2]: Inhibition of DC-SIGN (unknown origin) expressed in human Jurkat cells assessed as inhibition of EBOV-pseudotyped virus infection measured after 48 hrs by luciferase assay.
Test [3] in a line: Inhibition of full-length DC-SIGN (unknown origin) expressed in human monocyte derived dendritic cells assessed as inhibition of binding to recombinant HCMV gB using flow cytometry.

For `CC(C)(C)c1cc2c(OCCCn3cc(CN(O)C(=O)CCCCCn4cc(CO[C@H]5O[C@H](CO)[C@@H](O)[C@H](O)[C@@H]5O)nn4)nn3)c(c1)Cc1cc(C(C)(C)C)cc(c1OCCCn1cc(CN(O)C(=O)CCCCCn3cc(CO[C@H]4O[C@H](CO)[C@@H](O)[C@H](O)[C@@H]4O)nn3)nn1)Cc1cc(C(C)(C)C)cc(c1OCCCn1cc(CN(O)C(=O)CCCCCn3cc(CO[C@H]4O[C@H](CO)[C@@H](O)[C@H](O)[C@@H]4O)nn3)nn1)Cc1cc(C(C)(C)C)cc(c1OCCCn1cc(CN(O)C(=O)CCCCCn3cc(CO[C@H]4O[C@H](CO)[C@@H](O)[C@H](O)[C@@H]4O)nn3)nn1)C2`, the concentration for half-maximal inhibition (IC50) – broadly, the midpoint of a concentration-inhibition curve – was 37.5 µM in test [1], 0.634 µM in test [2] and 156 nM in test [3].

`COC(=O)CNC(=O)CN(Cc1cn(CCCOc2c3cc(C(C)(C)C)cc2Sc2cc(C(C)(C)C)cc(c2OCCCn2cc(CN(CC(=O)NCC(=O)OC)C(=O)CCCCCn4cc(CO[C@@H]5O[C@@H](C)[C@@H](O)[C@@H](O)[C@@H]5O)nn4)nn2)Sc2cc(C(C)(C)C)cc(c2OCCCn2cc(CN(CC(=O)NCC(=O)OC)C(=O)CCCCCn4cc(CO[C@@H]5O[C@@H](C)[C@@H](O)[C@@H](O)[C@@H]5O)nn4)nn2)Sc2cc(C(C)(C)C)cc(c2OCCCn2cc(CN(CC(=O)NCC(=O)OC)C(=O)CCCCCn4cc(CO[C@@H]5O[C@@H](C)[C@@H](O)[C@@H](O)[C@@H]5O)nn4)nn2)S3)nn1)C(=O)CCCCCn1cc(CO[C@@H]2O[C@@H](C)[C@@H](O)[C@@H](O)[C@@H]2O)nn1`: the IC50 came out at 17 µM in test [1], 0.602 µM in test [2] and 1000 nM in test [3].

Consider `CO[C@H]1O[C@H](CO)[C@@H](O)[C@H](O)[C@@H]1O` [methyl alpha-D-mannoside], for which the IC50 in test [2] was 1270 µM.

With `C[C@@H]1O[C@@H](OCc2cn(CCCCCC(=O)N(O)Cc3cn(CCCOc4c5cc(C(C)(C)C)cc4Cc4cc(C(C)(C)C)cc(c4OCCCn4cc(CN(O)C(=O)CCCCCn6cc(CO[C@@H]7O[C@@H](C)[C@@H](O)[C@@H](O)[C@@H]7O)nn6)nn4)Cc4cc(C(C)(C)C)cc(c4OCCCn4cc(CN(O)C(=O)CCCCCn6cc(CO[C@@H]7O[C@@H](C)[C@@H](O)[C@@H](O)[C@@H]7O)nn6)nn4)Cc4cc(C(C)(C)C)cc(c4OCCCn4cc(CN(O)C(=O)CCCCCn6cc(CO[C@@H]7O[C@@H](C)[C@@H](O)[C@@H](O)[C@@H]7O)nn6)nn4)C5)nn3)nn2)[C@@H](O)[C@H](O)[C@@H]1O`, the IC50 in test [1] was found to be 26.8 µM; in test [2], 0.289 µM; in test [3] it was 188 nM.

In the case of `COC(=O)CNC(=O)CN(Cc1cn(CCCOc2c3cc(C(C)(C)C)cc2Cc2cc(C(C)(C)C)cc(c2OCCCn2cc(CN(CC(=O)NCC(=O)OC)C(=O)CCCCCn4cc(CO[C@@H]5O[C@@H](C)[C@@H](O)[C@@H](O)[C@@H]5O)nn4)nn2)Cc2cc(C(C)(C)C)cc(c2OCCCn2cc(CN(CC(=O)NCC(=O)OC)C(=O)CCCCCn4cc(CO[C@@H]5O[C@@H](C)[C@@H](O)[C@@H](O)[C@@H]5O)nn4)nn2)Cc2cc(C(C)(C)C)cc(c2OCCCn2cc(CN(CC(=O)NCC(=O)OC)C(=O)CCCCCn4cc(CO[C@@H]5O[C@@H](C)[C@@H](O)[C@@H](O)[C@@H]5O)nn4)nn2)C3)nn1)C(=O)CCCCCn1cc(CO[C@@H]2O[C@@H](C)[C@@H](O)[C@@H](O)[C@@H]2O)nn1`, the IC50 stood at 26.5 µM in test [1], 0.218 µM in test [2] and 777 nM in test [3].

For the compound `COC(=O)CNC(=O)CN(Cc1cn(CCCOc2c3cc(C(C)(C)C)cc2Cc2cc(C(C)(C)C)cc(c2OCCCn2cc(CN(CC(=O)NCC(=O)OC)C(=O)CCCCCn4cc(CO[C@H]5O[C@H](CO)[C@@H](O)[C@H](O)[C@@H]5O)nn4)nn2)Cc2cc(C(C)(C)C)cc(c2OCCCn2cc(CN(CC(=O)NCC(=O)OC)C(=O)CCCCCn4cc(CO[C@H]5O[C@H](CO)[C@@H](O)[C@H](O)[C@@H]5O)nn4)nn2)Cc2cc(C(C)(C)C)cc(c2OCCCn2cc(CN(CC(=O)NCC(=O)OC)C(=O)CCCCCn4cc(CO[C@H]5O[C@H](CO)[C@@H](O)[C@H](O)[C@@H]5O)nn4)nn2)C3)nn1)C(=O)CCCCCn1cc(CO[C@H]2O[C@H](CO)[C@@H](O)[C@H](O)[C@@H]2O)nn1`, the IC50 in test [1] is 45.3 µM.

As for `COC(=O)CNC(=O)CN(Cc1cn(CCCOc2c3cc(C(C)(C)C)cc2Sc2cc(C(C)(C)C)cc(c2OCCCn2cc(CN(CC(=O)NCC(=O)OC)C(=O)CCCCCn4cc(CO[C@H]5O[C@H](CO)[C@@H](O)[C@H](O)[C@@H]5O)nn4)nn2)Sc2cc(C(C)(C)C)cc(c2OCCCn2cc(CN(CC(=O)NCC(=O)OC)C(=O)CCCCCn4cc(CO[C@H]5O[C@H](CO)[C@@H](O)[C@H](O)[C@@H]5O)nn4)nn2)Sc2cc(C(C)(C)C)cc(c2OCCCn2cc(CN(CC(=O)NCC(=O)OC)C(=O)CCCCCn4cc(CO[C@H]5O[C@H](CO)[C@@H](O)[C@H](O)[C@@H]5O)nn4)nn2)S3)nn1)C(=O)CCCCCn1cc(CO[C@H]2O[C@H](CO)[C@@H](O)[C@H](O)[C@@H]2O)nn1`, the IC50 in test [1] worked out at 14.6 µM.
